Here are results for five molecules from US10166211B1, “Nitric oxide releasing compound, pharmaceutical composition, use and synthesis method thereof” (NATIONAL CHIAO TUNG UNIVERSITY, priority 2017, dated 2019).

The test system of assay [1] is EAHY926 cells. The assay can be described thus: Wound healing assay (in vitro scratch). Format: cell-based, human. Conditions: EAHY926, 7.8 μM, 1 mm wide line, 24th hour, FIGS. 9A-9I. As for the experimental part: (§1) In the present disclosure, the cell line for the cell experiment is EAHY926 (human vascular endothelial cell line), and the mouse strain for the animal experiment is BALB/c Nude mouse.
EAHY926 cells were seeded in cell culture plates at 37° C. […] A 1 millimeter (mm) wide line was scraped off in a culture plate, and images of the culture were taken within the first hour and the 24th hour to record and quantify the percentage of wound healing.

Assay [2] deals with EAHY926 cells. Nature of the assay: Cell viability (MTT) of the cell cultures of the wound healing test. Type of assay: cell-based, human. Particulars: EAHY926, 7.8 μM, FIG. 11. The text has this: (§2) In this experiment, 3-(4,5-cimethylthiazol-2-yl)-2,5-diphenyl tetrazolium bromide (also called MTT) was used for testing cell viability. MTT is a yellow compound and a dye that accepts hydrogen ions and acts on the respiratory chain of living cell mitochondria. Under the action of succinate dehydrogenase (SDH) and cytochrome C, the tetrazolium ring of MTT will be cracked to generate blue color crystals. The formation of crystals is proportional to the number of living cells (in dead cells, because there is no active succinate dehydrogenase, MTT cannot be reduced). The O.D value can indirectly represent cell viability because of the MTT reduction ability of living cells.
In the present experimental example, then the cell viability was assayed by adding MTT reagent to the various cell cultures of wound healing test. The results are shown in FIG. 11, among all of the groups, the group treated with RRE-1 had the highest cell viability. The result corresponds to the result of FIG. 4. In FIG. 11, the effects of cell viability were ranked as RRE-1>DPTA>MAHMA. The trend is similar to the result of FIG. 10.

The next assay relates to TIE-2. Nature of the assay: Western blot assay, TIE-2 expression. Conditions: EAHY926, 7.8 μM, 24 hours, FIG. 12. Format: cell-based, human. How it is done: (§3) In the literature, nitric oxide releasing agents have the potential for promoting angiogenesis and wound healing in vivo, and are also clinically useful agents that can effectively promote the expression of vascular endothelial growth factor receptor 2 (VEGFR2). Therefore, this experiment intended to test the effect of the respective various nitric oxide releasing agents on the expression of angiogenesis-related proteins (e.g., TIE-2, and VEGFR-2).
(§4) EAHY926 cells were seeded in cell culture dishes at 37° C. […] After 24 hours incubation, the cultures were washed with PBS three times and added 250 microliters (μL) of cell lysis buffer, then the cells were scraped and the proteins of the cells were extracted for Western blot experiment.
(In general: A western blot detects proteins with antibodies after separation by electrophoresis.)

The next assay concerns VEGFR-2. The assay can be described thus: Western blot assay, VEGFR-2 expression. Particulars: EAHY926, 7.8 μM, 24 hours, FIG. 12. Type of assay: cell-based, human. How it is done: as §3, §4
Assay [3] concerns EAHY926 cells. The assay can be described thus: Cell development index assay (Angiogenesis Analyzer for ImageJ). Format: cell-based, human. Conditions: EAHY926, 7.8 μM, 24th hour; for numbers of endothelial junctions (rank of effects): FIG. 7A; for numbers of endothelial meshes (rank of effects): FIG. 7B; for total branching lengths (rank of effects): FIG. 7C. How it is done:
as §1
EAHY926 cells were seeded in cell culture plates at 37° C. […] Microscopic images were taken within the first hour and the 24th hour after the addition of nitric oxide releasing agents, and the images were analyzed by “Angiogenesis Analyzer for ImageJ” software for analyzing cell development index. The analyzed cell development parameters include cell meshes, cell junctions and cell branches.
Please refer to FIGS. 5A to 5H and FIGS. 6A to 6H. In the analysis of cell development, the gray lines were represented as cell branches of the cell-cell junction, and the more lines mean more growth of the cells. In addition, when the cells were more developed because they had more cell branches, the cells were represented by white lines. As the degree of cell development increased, cell junctions (dark gray dots) became more. Further, the cells enclosed multiple circles (black lines) which were called cell meshes.

Assay [4] deals with zebrafish with fluorescence gene Tg (fli1: EGFP) y1. Nature of the assay: In vivo angiogenesis assay in zebrafish. Conditions: 7.8 μM. As for the experimental part:
In this experiment, zebrafish with fluorescence gene Tg (fli1: EGFP) y1 were used for in vivo angiogenesis analysis. The zebrafish nutrient solutions were respectively added with the respective various nitric oxide releasing agents at 7.8 μM concentration. The zebrafish were incubated with nitric oxide releasing agents for 24 to 48 hours. The confocal microscopy images were taken at the beginning, the 24th hour, and the 48th hour after incubation, and semi-quantitative analysis of neovascularization in zebrafish oocysts was performed.
FIGS. 14A to 14E show images taken within the first hour after addition of the nitric oxide releasing agents. FIGS. 15A to 15E are images taken within the 24th hour after addition of the nitric oxide releasing agents. FIGS. 16A to 16E are images taken within the 48th hour after addition of nitric oxide releasing agents. Neovascularization in the zebrafish oocyst area is indicated by the white arrows.

A further assay deals with chicken embryos. The assay can be described thus: Chicken chorioallantoic membrane assay (CAM). Particulars: 7.8 μM injected into eggs after 6 days incubation, 2 days of culture, FIG. 20. Format: in vivo. As for the experimental part: In this experimental example, the insemination eggs were placed on the egg rack and the eggs' gas chamber were placed upwards in the hatching incubator. After incubation for 6 days, the eggs were screened with an egg detector, and the insemination eggs with hatching embryos were selected. Then, small holes were respectively drilled on the air chamber end (blunt end) and a side of the selected eggs, and 7.8 μM of the respective various nitric oxide releasing agents were injected through the small holes at the blunt end, sterilized filter films were covered on the hole of the air chamber, and then ventilation tapes were put on. The eggs were continuously incubated in the incubator. After 2 days of culture, the eggs were poked and placed in Petri dishes to observe and recorded by a camera.
The condition of the control group was the eggs with no addition of nitric oxide releasing agents.

For assay [5], the system named is Immunodeficient nude mice. Nature of the assay: In vivo angiogenesis assay (DIVAA) in mice. Also on record: species or system mouse. Conditions: soft tubes implanted in the back, 7.8 μM, twenty days, FIG. 13.
Text: as §1
Immunodeficient nude mice (6 in each group) were fixed on the operating table and anesthetized (1-3% isoflurane/100% oxygen, flow rate 1 L/min). After the mice were fixed, two 1 cm incisions were respectfully cut on the left and right back of the mice with a surgical knife. Soft tubes containing mixtures of cell nutrient agents and 7.8 μM of respective nitric oxide releasing agents were prepared. These soft tubes were implanted into the back of the mice, then the wounds were washed with normal saline and were stitched. After 20 days, the soft tubes were removed and the hemoglobins within the soft tubes were released. The total amounts of hemoglobin were analyzed by ELISA analyzer for obtaining the correlation parameters of angiogenesis.
The control group was the conditioned of the soft tube without nitric oxide releasing agents.

For assay [6], the system named is EAHY926 cells. Nature of the assay: Cell viability assay (MTT). Format: cell-based, human. Conditions: EAHY926, 24 hours, 37° C., at various concentrations, FIG. 4.
Text: as §1, §2

For the molecule “1-(hydroxy-NNO-azoxy)-L-proline, disodium salt”, the “effect on wound healing (images)” value with EAHY926 cells [1] is given as “more significant effects on wound healing”.

As to `NCCCN(CCCN)/[N+]([O-])=N/O` [DPTA, (Z)-1-[N-(3-aminopropyl)-N-(3-ammoniopropyl)amino]diazen-1-ium-1,2-diolate], the “effect on wound healing (images)” value in the assay on EAHY926 cells [1] is “more significant effects on wound healing”. Besides, the “cell viability (MTT) after wound healing test” value with EAHY926 cells [2] is on record as “RRE-1>DPTA>MAHMA”.

With `CNCCCCCCN(C)/[N+]([O-])=N/O` [MAHMA, (Z)-1-[N-Methyl-N-[6-(N-methylammoniohexyl)amino]]diazen-1-ium-1,2-diolate], the “expression of protein TIE-2 (Western blot)” value in the assay on TIE-2 is “only induced a small amount”. Further, in the assay with VEGFR-2, the “expression of protein VEGFR-2 (Western blot)” value is “only induced a small amount”. Moreover, the “cell viability (MTT) after wound healing test” value in the assay on EAHY926 cells [2] is recorded as “RRE-1>DPTA>MAHMA”. For the same molecule, in the assay on EAHY926 cells [3], the “numbers of endothelial junctions (rank of effects)” value (“numbers of endothelial junctions” below) is given as “RRE-1>VEGF>Spermine>MAHA”, the “numbers of endothelial meshes (rank of effects)” value (“numbers of endothelial meshes” below) is recorded as “RRE-1>VEGF>MAHMA>Spermine” and the “total branching lengths (rank of effects)” value (“total branching lengths” for short) is “RRE-1>Spermine>VEGF>MAHMA”. In addition, the “angiogenesis (neovascularization in zebrafish oocyst area)” value in [4] (24 hours, FIG. 17) is given as “most effective”.

`NCCCNCCCCNCCCN` [Spermine]: the “expression of protein TIE-2 (Western blot)” value with TIE-2 was “only induced a small amount”. For the same molecule, the “effect on wound healing (images)” value in the assay on EAHY926 cells [1] is recorded as “more significant effects on wound healing”. Moreover, in the assay on VEGFR-2, the “expression of protein VEGFR-2 (Western blot)” value is recorded as “only induced a small amount”. In the assay on chicken embryos, the “angiogenesis of chicken embryos (CAM)” value was “similar”. Besides, in the assay with EAHY926 cells [3], the “numbers of endothelial junctions” value is on record as “RRE-1>VEGF>Spermine>MAHA”, the “numbers of endothelial meshes” value is given as “RRE-1>VEGF>MAHMA>Spermine” and the “total branching lengths” value is reported as “RRE-1>Spermine>VEGF>MAHMA”. Further, the “angiogenesis inside the soft tubes (total amounts of hemoglobin)” value in [5] was “followed by VEGF and Spermine”.

With VEGF, the “expression of protein TIE-2 (Western blot)” value in the assay on TIE-2 is reported as “only induced a small amount”. Besides, in the assay on EAHY926 cells [6], the “promotion of cell growth (cell viability, MTT)” value is “does not work better than other commercially available nitric oxide-releasing agents”. The “effect on wound healing (images)” value in the assay on EAHY926 cells [1] is “more significant effects on wound healing”. The “expression of protein VEGFR-2 (Western blot)” value in the assay on VEGFR-2 is “only induced a small amount”. Further, in the assay on EAHY926 cells [3], the “numbers of endothelial junctions” value is “RRE-1>VEGF>Spermine>MAHA”, the “numbers of endothelial meshes” value is “RRE-1>VEGF>MAHMA>Spermine” and the “total branching lengths” value was “RRE-1>Spermine>VEGF>MAHMA”. In addition, in assay [4] (24 to 48 hours), the “angiogenesis (neovascularization in zebrafish), overall statement” value is on record as “not effective as expected”. Also, the “angiogenesis inside the soft tubes (total amounts of hemoglobin)” value in [5] is “followed by VEGF and Spermine”.
